Tested on: rabbit cornea
Assay: Penetration enhancement testing: rate of diffusion of drug between chambers separated by rabbit cornea
Format: in vitro ADME
Details: test drugs prednisolone, guanethidine, flurbiprofen, compound used as penetration enhancer
Description: Permeation efficiencies are determined by measuring the rate of diffusion of drug between posterior and anterior chambers separated by rabbit cornea. Suitable test drugs include prednisolone, guanethidine, and flurbiprofen. Compounds II and V, described in Examples 2 and 4 above, are tested penetration enhancers. Water, acetone, ethanol, and GBR (glutathione-buffered Ringer's solution) are convenient vehicles used alone or in combination together with the test drugs and the proposed penetration enhancers. The relative rates of diffusion can be determined indirectly by measuring pH versus time in the respective chambers, or by HPLC.

| Structure (SMILES) | penetration or permeation of test drugs relative to similar compositions without the present compounds |
| --- | --- |
| O=C1CCCCCN1CCOCCOCCO [Compound V, N-triethyleneglycol Caprolactam] | enhanced penetration or permeation |
| CCOCCOCCOCCN1CCCCCC1=O [Compound II, N-triethoxyethylether Caprolactam] | enhanced penetration or permeation |

Reference: patent US6521613B2, “Lactam compounds for penetration enhancement” (Allergan, Inc., priority 2001, dated 2003)
